# Measurements from patent US20200030355A1, “COMBINATION THERAPY FOR TREATING CANCER” (Epizyme, Inc., priority 2014, published 2020).
# Entries after “also recorded” stand apart in the source; their conditions may differ.
# How the values were obtained:
# MOLM-13 (MLL-AF9) [1] = assay: Combination proliferation study with Compound A2 (ATP/CellTiter-Glo, Chou-Talalay combination index); format: cell-based, human
# Outline: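 Viability by CellTiter-Glo ATP luminescence; Fa relative to DMSO controls. Combination index by Chou-Talalay (CI<1 synergy, =1 additive, >1 antagonism).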
# MV4-11 (MLL-AF4) = assay: as above; format: cell-based, human; settings: for Combination of Compound A2 and anti-cancer agent, MV4-11: 7 Day Cotreatment; for Combination with Compound A2, MV4-11 (MLL-AF4): 7 Day Cotreatment Model, Table 4; for Combination with Compound A2, MV4-111 MLL-AF4: Table 2, Example 3
# Protocol: The acute myelogenous leukemia cell lines MV4-11 (MLL-AF4) and MOLM-13 (MLL-AF9) were obtained from American Type Culture Collection (ATCC; Rockville, Md.) and Deutsche Sammlung von Mikroorganismen and Zellkulturen (DSMZ; Braunschweig, Germany) respectively.
# (§1) Studies were performed using MLL-rearranged cell lines in vitro to evaluate the anti-proliferative effect of a combination of two agents together on cell growth. Initial proliferation studies were performed to determine the IC50 of a given compound in each cell line. The cell counts were measured by ATP quantitation using the Promega Cell Titer Glo kit and luminescence values corresponded to the amount of ATP in a given well.
# Compounds were evaluated for synergy in the co-treatment phase by testing the compounds in a concentration range which was bracketed around their IC50 values. The compounds were plated to a 96 well plate in a matrix format (FIG. 3) which includes increasing concentrations of each drug in the combination in a constant ratio, in addition to the effect of each compound alone in the study. Cells were seeded and grown in the log-linear phase for 3 or 7 days in the co-treatment phase. Minimum inhibition (DMSO alone) controls were used in each plate to calculate fraction affected (Fa) of a test well. DMSO concentration was kept at 0.1% v/v.
# The drug combination analysis was performed utilizing the Chou-Talalay method Synergy was determined using the software package Calcusyn by Biosoft. The combination index (CI) is a quantitative term used to describe the level of synergy or antagonism in a given test system. A combination index less than one indicates synergy, and a CI greater than one indicates antagonism. Further, strong synergism is achieved when the CI value falls below 0.3.
# (§2) Graphs representing values of combination index (CI) versus Fractional effect (Fa) known as Fa-CI plots were generated and synergy was evaluated. Drug synergy was statistically defined by CI values less than 1, antagonism by CI>1 and additive effect by CI equal to 1.
# as §2
# (§3) The HP-D300 digital dispenser (Tecan) was used to dispense compounds in a combinatorial matrix. […] Cell viability was measured via ATP content using CellTiter-Glo® (Promega).
# (§4) Viability was determined using CellTiter-Glo® (Promega).
# as §1, with “Proliferation studies” for “Studies”, “MOLM-13, MV4-11 and SKM-1” for “MLL-rearranged”, “cancer cell killing” for “anti-proliferative”, “IC50 values” for “IC50”, “correspond” for “corresponded”
# These studies were performed to evaluate both the combinatorial effect of compounds on cell killing and the durability of the effect by washing out one of the agents.
# Compounds evaluated for synergy in the co-treatment phase were tested in a range which was bracketed around the IC50's. The compounds were plated to a 96 well plate in a matrix format which includes increasing concentrations of each drug in the combination in a constant ratio, in addition to the effect of each compound alone in the study.
# [2] = tested on: SKM-1 (non-MLL-rearranged AML); assay: as above; format: cell-based, human; settings: for Effect of Compound A2 on the antiproliferative activity of the second agent: SKM-1, non-MLL-rearranged, Example 5
# Protocol: (§5) Graphs representing values of combination index (CI) versus Fractional effect (Fa) known as Fa-CI plots were generated and synergy was evaluated.
# as §5, §3, §4
# MV4-11 cells were maintained in IMDM supplemented with 10% fetal bovine serum. MOLM-13 and SKM-1 cells were maintained in Roswell Park Memorial Institute medium (RPMI) supplemented with 10% fetal bovine serum. They were cultured in flasks or plates in a humidified 5% CO2 atmosphere.
# as §1, with “Proliferation studies” for “Studies”, “MOLM-13, MV4-11 and SKM-1” for “MLL-rearranged”, “cancer cell killing” for “anti-proliferative”, “IC50 values” for “IC50”, “correspond” for “corresponded”
# Compounds evaluated for synergy in the co-treatment phase were tested in a range which was bracketed around the IC50's. The compounds were plated to a 96 well plate in a matrix format which includes increasing concentrations of each drug in the combination in a constant ratio, in addition to the effect of each compound alone in the study. Cells were seeded and grown in the log-linear phase for 3 or 7 days in the cotreatment phase. Maximum and minimum inhibition (DMSO alone) controls were used in each plate to calculate fraction affected (Fa) of a test well. DMSO concentration was kept at 0.1% v/v. The drug combination analysis was performed utilizing the Chou-Talalay method. Synergy was determined using the software package Calcusyn by Biosoft. The combination index (CI) is the term used to describe the level of synergy or antagonism in a given test system. A combination index less than one indicates synergy, and a CI greater than one indicates antagonism.
# The drug combination analysis was performed using the Chou-Talalay method. Graphs representing values of combination index (CI) versus Fractional effect (Fa) known as Fa-CI plots were generated and synergy was evaluated.
# EOL-1 (MLL-PTD) = assay: Combination proliferation study with Compound A2; format: cell-based, human; settings: Table 3, Example 3
# Protocol: as §3, §4
# KOPM-88 (MLL-PTD) = assay: Combination proliferation study with Compound A2; format: cell-based, human; settings: Table 3, Example 3
# Protocol: as §3, §4
# MOLM-13 cells = assay: EPZ-5676 300 nM 7-day pre-treatment, then second compound 72 hours, ATPLite, IC50 shift (Example 6); format: cell-based, human; settings: 300 nM EPZ-5676 or DMSO 7-day pre-treatment, then 2nd compound 72 hours, Synergy = IC50 of 2nd compound decreased by 2-fold or more vs DMSO control
# Protocol: (§6) Cells were then equilibrated in incubators for 24 hours before treatment with a second compound. Treated assay plates were incubated with a second compound for 72 hours. After this time, plates were developed for endpoint analysis using ATPLite to measure ATP content, which is used as an indicator of cell viability.
# (§7) “N/D” means that IC50 of the second compound could not be determined for both conditions.
# SKM-1 cells = assay: as above; format: cell-based, human; settings: SKM-1 cells; 300 nM EPZ-5676 or DMSO 7-day pre-treatment, then 2nd compound 72 hours, ATPLite; Synergy = IC50 of 2nd compound decreased by 2-fold or more vs DMSO control
# Protocol: as §6, §7
# MOLM-13 (MLL-AF9) [3] = assay: EPZ-5676 7-day pre-treatment, then second compound 72 hours, growth inhibition GI100 shift; primary screen and retest (Example 7); format: cell-based, human; settings: second compound 72 hours
# Protocol: as §6
# (§8) Cells were then treated with a second compound for 72 hours. After this time, plates were developed for endpoint analysis using Cell Titer Glo to measure ATP content, which is used as an indicator of cell viability.
# (§9) “N/D” means the GI100 of the second compound could not be determined for both conditions and “-” means not tested.
# (§10) Growth Inhibition (GI) as a measure of cell viability: The cell viability of vehicle was measured at the time of dosing the second agent (T0) and after seventy-two hours (T72). […] A GI 200% represents complete death of all cells in the culture well. Compounds reaching an activity plateau of GI 200% are considered cytotoxic. GI is calculated by applying the following test and equation: […]
# (§11) where T is the signal measure for a test article, V is the vehicle-treated control measure, and V0 is the vehicle control measure at time zero.
# SKM-1 (non-MLLr) = assay: as above; format: cell-based, human; settings: 300 nM EPZ-5676 7-day pre-treatment
# Protocol: as §6, §8, §9, §10, §11
# OCI-AML-4 (MLL-ENL) = assay: as above; format: cell-based; settings: 300 nM EPZ-5676 7-day pre-treatment, second compound 72 hours
# Protocol: as §6, §8, §9, §10, §11
# [4] = 7 Day Cotreatment Model, Table 4
smiles,measurement,setting,value
Nc1ncn([C@@H]2O[C@H](CO)[C@@H](O)[C@H]2O)c(=O)n1 [Azacitidine],"Combination with Compound A2, MOLM-13 (MLL-AF9)",MOLM-13 (MLL-AF9) [1]; [4],Strong Synergy
same,"Combination with Compound A2, MOLM-13 (MLL-AF9)","MOLM-13 (MLL-AF9) [1]; 7 Day Cotreatment Model, Table 4, listed as azacytidine",synergistically induce an anti-proliferative effect; also recorded: synergistic anti-proliferative activity
same,"Combination with Compound A2, MOLM-13 (MLL-AF9)","MOLM-13 (MLL-AF9) [1]; Table 2, Example 3",Synergy (Drug synergy was statistically defined by CI values less than 1)
same,"Combination of Compound A2 and anti-cancer agent, MV4-11",MV4-11 (MLL-AF4),Synergy (A combination index less than one indicates synergy)
same,"Combination with Compound A2, MV4-11 (MLL-AF4)",MV4-11 (MLL-AF4),Synergy (Drug synergy was statistically defined by CI values less than 1)
same,"Combination with Compound A2, MV4-11 (MLL-AF4)",MV4-11 (MLL-AF4); listed as azacytidine,synergistically induce an anti-proliferative effect; also recorded: synergistic anti-proliferative activity
same,"Combination with Compound A2, MV4-111 MLL-AF4",MV4-11 (MLL-AF4),Synergy (Drug synergy was statistically defined by CI values less than 1)
same,Effect of Compound A2 on the antiproliferative activity of the second agent,[2]; listed as Azacytidine,not potentiated
same,Effect of Compound A2 on the antiproliferative activity of the second agent,[2]; listed as azacytidine,no impact
same,"Combination with Compound A2, EOL-1 (MLL-PTD)",EOL-1 (MLL-PTD),Synergy (Drug synergy was statistically defined by CI values less than 1)
same,"Combination with Compound A2, KOPM-88 (MLL-PTD)",KOPM-88 (MLL-PTD),Synergy (Drug synergy was statistically defined by CI values less than 1)
COc1cc2c(cc1-c1c(C)noc1C)ncc1[nH]c(=O)n([C@H](C)c3ccccn3)c12 [IBET-151],"Combination with Compound A2, MOLM-13 (MLL-AF9)",MOLM-13 (MLL-AF9) [1]; [4],Synergy (Drug synergy was statistically defined by CI values less than 1)
same,"Combination with Compound A2, MOLM-13 (MLL-AF9)","MOLM-13 (MLL-AF9) [1]; Table 2, Example 3",Synergy (Drug synergy was statistically defined by CI values less than 1)
same,"Combination of Compound A2 and anti-cancer agent, MV4-11",MV4-11 (MLL-AF4),Synergy (A combination index less than one indicates synergy)
same,"Combination with Compound A2, MV4-111 MLL-AF4",MV4-11 (MLL-AF4),Synergy (Drug synergy was statistically defined by CI values less than 1)
same,"Combination with Compound A2, SKM-1 AML: Non-rearranged","[2]; Table 2, Example 3",IC50 not achieved
C[C@]12C=CC(=O)C=C1CC[C@@H]1[C@@H]2[C@@H](O)C[C@@]2(C)[C@H]1CC[C@]2(O)C(=O)CO [Prednisolone],"Combination with Compound A2, MOLM-13 (MLL-AF9)",MOLM-13 (MLL-AF9) [1]; [4],Antagonistic (antagonism by CI>1)
same,"Combination with Compound A2, MOLM-13 (MLL-AF9)","MOLM-13 (MLL-AF9) [1]; 7 Day Cotreatment Model, Table 4, listed as prednisolone",antagonism
same,"Combination with Compound A2, MV4-11 (MLL-AF4)",MV4-11 (MLL-AF4),Antagonistic (antagonism by CI>1)
same,"Combination with Compound A2, MV4-11 (MLL-AF4)",MV4-11 (MLL-AF4); listed as prednisolone,antagonism
same,Effect of Compound A2 on the antiproliferative activity of the second agent,[2],enhanced antiproliferative activity
O=C(Nc1ccc2[nH]nc(-c3ccncc3)c2c1)[C@@H]1CCN(CC(=O)N2CCN(c3ccc(-c4ncccn4)cc3)CC2)C1 [SCH772984],MOLM-13 (summary of combination study: EPZ-5676 + 2nd compound),MOLM-13 cells,Synergy (considered synergistic if the IC50 value of the second compound decreased by 2-fold or more when EPZ-5676 was added as compared to the DMSO control)
same,SKM-1 (summary of combination study: EPZ-5676 + 2nd compound),SKM-1 cells,Synergy (considered synergistic if the IC50 value of the second compound decreased by 2-fold or more when EPZ-5676 was added as compared to the DMSO control)
same,"Combination with EPZ-5676, MOLM-13 (MLL-AF9) Retest","MOLM-13 (MLL-AF9) [3]; 150 nM EPZ-5676 7-day pre-treatment, Cell Titer Glo",Synergy (considered synergistic if the GI100 (Growth inhibition 100) value of the second compound decreased by 2-fold or more when EPZ-5676 was added as compared to the DMSO control)
same,"Combination with EPZ-5676, MOLM-13 (MLL-AF9) Primary screen","MOLM-13 (MLL-AF9) [3]; 300 nM EPZ-5676 7-day pre-treatment, ATPLite",Synergy (considered synergistic if the GI100 (Growth inhibition 100) value of the second compound decreased by 2-fold or more when EPZ-5676 was added as compared to the DMSO control)
same,"Combination with EPZ-5676, SKM-1 (non-MLLr) Primary screen",SKM-1 (non-MLLr); ATPLite,Synergy (considered synergistic if the GI100 (Growth inhibition 100) value of the second compound decreased by 2-fold or more when EPZ-5676 was added as compared to the DMSO control)
same,"Combination with EPZ-5676, SKM-1 (non-MLLr) Retest",SKM-1 (non-MLLr); Cell Titer Glo,Synergy (considered synergistic if the GI100 (Growth inhibition 100) value of the second compound decreased by 2-fold or more when EPZ-5676 was added as compared to the DMSO control)
same,"Combination with EPZ-5676, OCI-AML-4 (MLL-ENL) Primary screen",OCI-AML-4 (MLL-ENL); ATPLite,Synergy (considered synergistic if the GI100 (Growth inhibition 100) value of the second compound decreased by 2-fold or more when EPZ-5676 was added as compared to the DMSO control)
same,"Combination with EPZ-5676, OCI-AML-4 (MLL-ENL) Retest",OCI-AML-4 (MLL-ENL); Cell Titer Glo,Synergy (considered synergistic if the GI100 (Growth inhibition 100) value of the second compound decreased by 2-fold or more when EPZ-5676 was added as compared to the DMSO control)
